Data from article PMC12664123, “Exploring Nirmatrelvir Derivatives Through P2 Substituent Modifications and Warhead Innovations Targeting the Main Protease of SARS‐CoV‐2” (Archiv Der Pharmazie, 2025).

How the values were obtained:
[1] = Metabolic stability against liver microsomes, loss of parent compound by HPLC-UV; conditions: 37°C; for remaining parent compound after 480 min: rat liver microsomes 0.2 mg/mL, NADPH, 100 µM compound, 480 min (8 h); for metabolic stability toward liver microsomes (in words): rat liver microsomes, up to 480 min
WT SARS-CoV-2 Mpro = WT SARS-CoV-2 Mpro (Severe acute respiratory syndrome coronavirus 2, UniProt P0DTD1); experiment: Jump-dilution assay for reversibility of inhibition; type: biochemical; conditions: for mechanism of inhibition (reversibility): incubated 30 min at 100 nM M^pro and 200 nM inhibitor, 10-fold dilution, followed 30 min; for residual enzyme activity after jump dilution: 10-fold dilution to 10 nM M^pro, 20 nM inhibitor
SARS-CoV-2 M^pro [2] = molecular target: T1, SARS-CoV-2 M^pro (Severe acute respiratory syndrome coronavirus 2, UniProt P0DTD1); experiment: Determination of the inhibition constants (Ki) for SARS-CoV-2 Mpro, Morrison equation, QS1 fluorogenic substrate; type: biochemical; conditions: for Ki / Biological Activity (pKi): M^pro 25 nM, QS1 20 µM; for Ki: 30 min preincubation at 37°C, pH 7.2; for Biological Activity (pKi): supplement table, 30 min preincubation at 37 °C; for fold more potent than compound 22 / ΔpK i relative to oxime analog 22: warhead exchange, vs compound 22
SARS-CoV-2 M^pro [3] = molecular target: T1, SARS-CoV-2 M^pro; experiment: Determination of Kinact/KI for time-dependent (irreversible) inhibitors, progress curves; type: biochemical; conditions: for kinact/KI: read-out: Kinact/KI (supplement table)

SMILES	Ki (SARS-CoV-2 M^pro [2]) [nM]	Biological Activity (pKi) (SARS-CoV-2 M^pro [2])	further results
CO[C@@H]1C[C@@H](C(=O)N[C@H](C=NO)C[C@@H]2CCNC2=O)N(C(=O)[C@@H](NC(=O)C(F)(F)F)C(C)(C)C)C1 [Compound 22, (2S,4R)−1‐{(S)−3,3‐Dimethyl‐2‐(2,2,2‐Trifluoroacetamido)butanoyl}‐N‐[(S)−1‐(Hydroxyimino)−3‐[(S)−2‐Oxopyrrolidin‐3‐yl]Propan‐2‐yl]−4‐Methoxypyrrolidine‐2‐Carboxamide]	158	6.8 ± 0.01	remaining parent compound after 480 min [1]: ca. 60%; mechanism of inhibition (reversibility) (WT SARS-CoV-2 Mpro): reversible
CC(C)(C)[C@H](NC(=O)C(F)(F)F)C(=O)N1C[C@H](c2ccccc2)C[C@H]1C(=O)N[C@H](C=NO)C[C@@H]1CCNC1=O [Compound 23, (2S,4S)−1‐{(S)−3,3‐Dimethyl‐2‐(2,2,2‐Trifluoroacetamido)Butanoyl}‐N‐[(S)−1‐(Hydroxyimino)−3‐[(S)−2‐Oxopyrrolidin‐3‐yl]Propan‐2‐yl]−4‐Phenylpyrrolidine‐2‐Carboxamide]	50.1	7.3 ± 0.01	
C=CCO[C@@H]1C[C@@H](C(=O)N[C@H](C=NO)C[C@@H]2CCNC2=O)N(C(=O)[C@@H](NC(=O)C(F)(F)F)C(C)(C)C)C1 [Compound 24, (2S,4R)−4‐(Allyloxy)−1‐{(S)−3,3‐Dimethyl‐2‐(2,2,2‐Trifluoroacetamido)Butanoyl}‐N‐[(S)−1‐(Hydroxyimino)−3‐[(S)−2‐Oxopyrrolidin‐3‐yl]Propan‐2‐yl]Pyrrolidine‐2‐Carboxamide]	50.1	7.3 ± 0.08	
C#CCO[C@@H]1C[C@@H](C(=O)N[C@H](C=NO)C[C@@H]2CCNC2=O)N(C(=O)[C@@H](NC(=O)C(F)(F)F)C(C)(C)C)C1 [Compound 25, (2S,4R)−1‐{(S)−3,3‐Dimethyl‐2‐(2,2,2‐Trifluoroacetamido)Butanoyl}‐N‐[(S)−1‐(Hydroxyimino)−3‐[(S)−2‐Oxopyrrolidin‐3‐yl]Propan‐2‐yl]−4‐(Prop‐2‐yn‐1‐Yloxy)Pyrrolidine‐2‐Carboxamide]	31.6	7.5 ± 0.04	
CCO[C@@H]1C[C@@H](C(=O)N[C@H](C=NO)C[C@@H]2CCNC2=O)N(C(=O)[C@@H](NC(=O)C(F)(F)F)C(C)(C)C)C1 [Compound 26, (2S,4R)−1‐{(S)−3,3‐Dimethyl‐2‐(2,2,2‐Trifluoroacetamido)Butanoyl}−4‐Ethoxy‐N‐[(S)−1‐(Hydroxyimino)−3‐[(S)−2‐Oxopyrrolidin‐3‐yl]Propan‐2‐yl]Pyrrolidine‐2‐Carboxamide]	100	7.0 ± 0.02	
CC(C)(C)[C@H](NC(=O)C(F)(F)F)C(=O)N1C[C@H](C2CCCCC2)C[C@H]1C(=O)N[C@H](C=NO)C[C@@H]1CCNC1=O [Compound 27, (2S,4S)−4‐Cyclohexyl‐1‐{(S)−3,3‐Dimethyl‐2‐(2,2,2‐Trifluoroacetamido)Butanoyl}‐N‐[(S)−1‐(Hydroxyimino)−3‐[(S)−2‐Oxopyrrolidin‐3‐yl]Propan‐2‐yl]Pyrrolidine‐2‐Carboxamide]	100	7.0 ± 0.02	
CC(=O)N[C@@H]1C[C@@H](C(=O)N[C@H](C=NO)C[C@@H]2CCNC2=O)N(C(=O)[C@@H](NC(=O)C(F)(F)F)C(C)(C)C)C1 [Compound 28, (2S,4R)−4‐Acetamido‐1‐{(S)−3,3‐Dimethyl‐2‐(2,2,2‐Trifluoroacetamido)Butanoyl}‐N‐[(S)−1‐(Hydroxyimino)−3‐[(S)−2‐Oxopyrrolidin‐3‐yl]Propan‐2‐yl]Pyrrolidine‐2‐Carboxamide]	100	7.0 ± 0.03	
CC(C)(C)[C@H](NC(=O)C(F)(F)F)C(=O)N1C[C@H](OCc2ccccc2)C[C@H]1C(=O)N[C@H](C=NO)C[C@@H]1CCNC1=O [Compound 29, (2S,4R)−4‐(Benzyloxy)−1‐{(S)−3,3‐Dimethyl‐2‐(2,2,2‐Trifluoroacetamido)Butanoyl}‐N‐[(S)−1‐(Hydroxyimino)−3‐[(S)−2‐Oxopyrrolidin‐3‐yl]Propan‐2‐yl]Pyrrolidine‐2‐Carboxamide]	200	6.7 ± 0.02	
CO[C@@H]1C[C@@H](C(=O)N[C@H](/C=C(\F)S(=O)(=O)c2ccccc2)C[C@@H]2CCNC2=O)N(C(=O)[C@@H](NC(=O)C(F)(F)F)C(C)(C)C)C1 [Compound 30, (2S,4R)−1‐{(S)−3,3‐Dimethyl‐2‐(2,2,2‐Trifluoroacetamido)Butanoyl}‐N‐[(S,E)−4‐Fluoro‐1‐((S)−2‐Oxopyrrolidin‐3‐yl)−4‐(Phenylsulfonyl)but‐3‐en‐2‐yl]−4‐Methoxypyrrolidine‐2‐Carboxamide]	7.94	8.1 ± 0.01	remaining parent compound after 480 min [1]: ~100%; mechanism of inhibition (reversibility) (WT SARS-CoV-2 Mpro): reversible; fold more potent than compound 22 (SARS-CoV-2 M^pro [2]): ~20 fold; ΔpK i relative to oxime analog 22 (SARS-CoV-2 M^pro [2]): 1.3
CO[C@@H]1C[C@@H](C(=O)N[C@H](C#N)C[C@@H]2CCNC2=O)N(C(=O)[C@@H](NC(=O)C(F)(F)F)C(C)(C)C)C1 [Compound 31, (2S,4R)‐N‐[(S)−1‐Cyano‐2‐[(S)−2‐Oxopyrrolidin‐3‐yl]Ethyl]−1‐{(S)−3,3‐Dimethyl‐2‐(2,2,2‐Trifluoroacetamido)Butanoyl}−4‐Methoxypyrrolidine‐2‐Carboxamide]	1.58	8.8 ± 0.01	remaining parent compound after 480 min [1]: ~100%; fold more potent than compound 22 (SARS-CoV-2 M^pro [2]): 100 fold; ΔpK i relative to oxime analog 22 (SARS-CoV-2 M^pro [2]): 2.0
CO[C@@H]1C[C@@H](C(=O)N[C@H](/C=C/S(=O)(=O)c2ccccc2)C[C@@H]2CCNC2=O)N(C(=O)[C@@H](NC(=O)C(F)(F)F)C(C)(C)C)C1 [Compound 32, (2S,4R)−1‐{(S)−3,3‐Dimethyl‐2‐(2,2,2‐Trifluoroacetamido)butanoyl}−4‐Methoxy‐N‐[(S,E)−1‐((S)−2‐Oxopyrrolidin‐3‐yl)−4‐(Phenylsulfonyl)but‐3‐en‐2‐yl]Pyrrolidine‐2‐Carboxamide]			residual enzyme activity after jump dilution (WT SARS-CoV-2 Mpro): very low residual enzyme activity; mechanism of inhibition (reversibility) (WT SARS-CoV-2 Mpro): irreversible; kinact/KI (SARS-CoV-2 M^pro [3]): 4400 M⁻¹ s⁻¹
COc1ccc(C(=O)ON=C[C@H](C[C@@H]2CCNC2=O)NC(=O)[C@@H]2C[C@@H](OC)CN2C(=O)[C@@H](NC(=O)C(F)(F)F)C(C)(C)C)cc1 [Compound 33, (2S,4R)−1‐{(S)−3,3‐Dimethyl‐2‐(2,2,2‐Trifluoroacetamido)Butanoyl}−4‐Methoxy‐N‐[(S)−1‐[((4‐Methoxybenzoyl)Oxy)Imino]−3‐[(S)−2‐Oxopyrrolidin‐3‐yl]Propan‐2‐yl]Pyrrolidine‐2‐Carboxamide]			metabolic stability toward liver microsomes (in words) [1]: readily degraded; residual enzyme activity after jump dilution (WT SARS-CoV-2 Mpro): very low residual enzyme activity; mechanism of inhibition (reversibility) (WT SARS-CoV-2 Mpro): irreversible; fold higher reactivity than the vinyl sulfone (32) (SARS-CoV-2 M^pro [3]; Kinact/KI of 33 vs 32): ~20 fold; kinact/KI (SARS-CoV-2 M^pro [3]): 77000 M⁻¹ s⁻¹
CC(C)(C)[C@H](NC(=O)C(F)(F)F)C(=O)N1C[C@H](c2ccccc2)C[C@H]1C(=O)N[C@H](C#N)C[C@@H]1CCNC1=O [Compound 34, (2S,4S)‐N‐[(S)−1‐Cyano‐2‐[(S)−2‐Oxopyrrolidin‐3‐yl]Ethyl]−1‐{(S)−3,3‐Dimethyl‐2‐(2,2,2‐Trifluoroacetamido)Butanoyl}−4‐Phenylpyrrolidine‐2‐Carboxamide]	1.26	8.9 ± 0.01	metabolic stability toward liver microsomes (in words) [1]: comparable stability to the initial prototype 22
CC(C)(C)[C@H](NC(=O)C(F)(F)F)C(=O)N1C[C@H]2[C@@H]([C@H]1C(=O)N[C@H](C#N)C[C@@H]1CCNC1=O)C2(C)C [nirmatrelvir]			remaining parent compound after 480 min [1]: ca. 80%
C[C@]12CC[C@H]3[C@@H](CCC4=CC(=O)CC[C@@]43C)[C@@H]1CC[C@@H]2O [testosterone, reference compound]			metabolic stability toward liver microsomes (in words) [1]: readily degraded
